Legend:
[1] = system: Trypanosoma brucei brucei; assay: Antitrypanosomal activity against Trypanosoma brucei brucei CMP infected in Swiss mouse assessed as parasite number level ul of blood at 50 umol/kg, ip administered as single dose measured on day 2; format: functional
[2] = system: Trypanosoma brucei brucei; assay: Antitrypanosomal activity against Trypanosoma brucei brucei CMP infected in Swiss mouse assessed as parasite number level ul of blood at 50 umol/kg, ip administered as single dose measured on day 3; format: functional
[3] = system: Trypanosoma brucei brucei; assay: Antitrypanosomal activity against Trypanosoma brucei brucei CMP infected in Swiss mouse assessed as parasite number level ul of blood at 50 umol/kg, ip administered as single dose measured on day 4; format: functional
[4] = system: Trypanosoma brucei gambiense; assay: Antitrypanosomal activity against Trypanosoma brucei gambiense FeoITMAP/1893 assessed as inhibition of parasite growth after 72 hrs by resazurin dye based microplate reader analysis; format: functional, organism-based; details: FeoITMAP/1893, 72 h
[5] = Cytotoxicity against mouse 3T6 cells assessed as inhibition of cell proliferation after 48 hrs by MTT assay; format: cell-based
[6] = Selectivity index, ratio of CC50 for mouse 3T6 cells to IC50 for Trypanosoma brucei gambiense strain FeoITMAP/1893; format: functional
[7] = system: Trypanosoma brucei brucei; assay: Antitrypanosomal activity against Trypanosoma brucei brucei CMP infected in Swiss mouse assessed as mean survival time at 100 umol/kg, ip administered as single dose; format: functional
[8] = system: Trypanosoma brucei brucei; assay: Antitrypanosomal activity against Trypanosoma brucei brucei CMP infected in Swiss mouse assessed as mean survival time at 50 umol/kg, ip administered as single dose; format: functional
[9] = system: Trypanosoma brucei brucei; assay: Antitrypanosomal activity against Trypanosoma brucei brucei CMP infected in Swiss mouse assessed as cure rate at 100 umol/kg, ip administered as single dose; format: functional
[10] = system: Trypanosoma brucei brucei; assay: Antitrypanosomal activity against Trypanosoma brucei brucei CMP infected in Swiss mouse assessed as cure rate at 50 umol/kg, ip administered as single dose; format: functional
Mus musculus [11] = assay: Toxicity against Swiss mouse infected with Trypanosoma brucei brucei CMP assessed as animal death at 100 umol/kg, ip administered as single dose; format: organism-based; details: in vivo
Mus musculus [12] = assay: Toxicity against Swiss mouse infected with Trypanosoma brucei brucei CMP assessed as animal death at 50 umol/kg, ip administered as single dose; format: organism-based; details: in vivo
[13] = system: Trypanosoma brucei brucei; assay: Antitrypanosomal activity against Trypanosoma brucei brucei CMP infected in Swiss mouse assessed as parasite number level ul of blood at 100 umol/kg, ip administered as single dose measured on day 2; format: functional
[14] = system: Trypanosoma brucei brucei; assay: Antitrypanosomal activity against Trypanosoma brucei brucei CMP infected in Swiss mouse assessed as parasite number level ul of blood at 100 umol/kg, ip administered as single dose measured on day 3; format: functional
[15] = system: Trypanosoma brucei brucei; assay: Antitrypanosomal activity against Trypanosoma brucei brucei CMP infected in Swiss mouse assessed as parasite number level ul of blood at 100 umol/kg, ip administered as single dose measured on day 4; format: functional
[16] = Cytotoxicity against monkey LLC-MK2 cells; format: cell-based, Macaca mulatta; details: rhesus monkey
[17] = system: Trypanosoma brucei brucei; assay: Antitrypanosomal activity against Trypanosoma brucei brucei CMP infected in Swiss mouse assessed as parasite number level ul of blood at 100 umol/kg, ip administered as single dose measured on day 30; format: functional

Row | SMILES | IC50 [4] | CC50 at 48 h [5] | Ratio CC50/IC50 [6] | MST [7] | Activity [9] | Activity (Mus musculus [11]) | Activity [13] | Activity [14] | Activity [15] | further results
1 | CCOC(=O)c1cn(C2CC2)c2cc(N3CCN(Cc4ccccc4)CC3)c(F)cc2c1=O | 6.03 µM | > 30 µM | 5 | 8.2 days | 0% | Non-toxic | 0 µL⁻¹ | 0 µL⁻¹ | 0 µL⁻¹ | Activity [1]: 0 µL⁻¹; Activity [2]: 0 µL⁻¹; Activity [3]: 7 µL⁻¹; MST [8]: 6.1 days; Activity [10]: 0%; Activity (Mus musculus [12]): Non-toxic
2 | CCOC(=O)c1cn(C2CC2)c2cc(N3CCN(CC45CC6CC(CC(C6)C4)C5)CC3)c(F)cc2c1=O | 23.1 µM | 27.8 µM | 1.2 |  |  |  |  |  |  | 
3 | Fc1ccc2[nH]c(-c3ccc(Nc4ccnc5cc(Cl)ccc45)cc3)nc2c1 | 1.98 µM |  | 5.3 | 1.2 days | 0% | Non-toxic | 0 µL⁻¹ | 97 µL⁻¹ | 31590 µL⁻¹ | Activity [1]: 13.7 µL⁻¹; Activity [2]: 117 µL⁻¹; Activity [3]: 28317 µL⁻¹; CC50 [16]: 10.6 µM; MST [8]: 1.1 days; Activity [10]: 0%; Activity (Mus musculus [12]): Non-toxic
4 | Clc1ccc2c(Nc3ccc(-c4nc5ccccc5[nH]4)cc3)ccnc2c1 | 3.79 µM |  | 4.1 |  |  |  |  |  |  | CC50 [16]: 15.5 µM
5 | N=C(N)c1ccc(OCCCCCOc2ccc(C(=N)N)cc2)cc1.O=S(=O)(O)CCO |  |  |  | >30 days | 100% | Non-toxic |  | 0 µL⁻¹ | 0 µL⁻¹ | Activity [17]: 0 µL⁻¹
6 | CCN(CC)CCCC(C)Nc1ccnc2cc(Cl)ccc12.O=P(O)(O)O.O=P(O)(O)O (stereo not drawn) [CHLOROQUINE PHOSPHATE] |  |  |  | 0 days | 0% | Non-toxic | 23.7 µL⁻¹ | 498 µL⁻¹ | 42607 µL⁻¹ | 
7 | CCOC(=O)c1cn(C2CC2)c2cc(N3CCNCC3)c(F)cc2c1=O [CIPROFLOXACIN ETHYL ESTER] | 26 µM | > 30 µM | 1.2 |  |  |  |  |  |  | 
8 | O=C(O)c1cn(C2CC2)c2cc(N3CCNCC3)c(F)cc2c1=O [CIPROFLOXACIN] | 52 µM |  |  |  |  |  |  |  |  | 
9 | N=C(N)c1ccc(OCCCCCOc2ccc(C(=N)N)cc2)cc1 [PENTAMIDINE] | 0.0049 µM |  |  |  |  |  |  |  |  | 

— ChEMBL document CHEMBL3600287, “New heterocyclic compounds: Synthesis and antitrypanosomal properties” (Bioorg Med Chem, 2015)
